Laboratory results from patent publication US20200277571A1, “METHOD FOR AMPLIFYING CONE PHOTORECEPTORS OR ROD PHOTORECEPTORS USING DORSALIZATION SIGNAL TRANSMITTER OR VENTRALIZATION SIGNAL TRANSMITTER” (RIKEN, priority 2017, published 2020).

Key:
[1] = system: cone photoreceptor precursor and rod photoreceptor precursor in retinal tissue produced from human ES cells; test: Immunostaining for GFP (CRX::Venus), RXR-γ and NRL of retinal tissue, day 191-192, image analysis; assay type: cell-based; conditions: for proportion of rod photoreceptor precursor (Rod-like; NRL-positive) / proportion of cone photoreceptor precursor (Cone; RXR-γ-positive and NRL-negative): day 191-192, 100 nM LDN193189 or 100 nM SAG day 22 to day 100; for proportion of rod photoreceptor precursor (Rod-like; NRL-positive) / proportion of cone photoreceptor precursor (Cone; RXR-γ-positive and NRL-negative) / proportion of NRL-positive rod photoreceptor precursor among photoreceptor precursors versus Control group: 0.15 nM BMP4, 500 nM Cyclopamine-KAAD; for proportion of rod photoreceptor precursor (Rod-like; NRL-positive): Control (NUC) about 12.8%; for proportion of cone photoreceptor precursor (Cone; RXR-γ-positive and NRL-negative): Control (NUC) about 22.7%; for proportion of NRL-positive rod photoreceptor precursor among photoreceptor precursors versus Control group: 100 nM LDN193189, 100 nM SAG day 22 to day 100; for proportion of RXR-γ-positive cone photoreceptor precursor among photoreceptor precursors versus Control group: 500 nM Cyclopamine-KAAD or 100 nM SAG day 22 to day 100
Procedure: A cell aggregate containing a retinal tissue was prepared by the method described in “Kuwahara et al. Nat Commun 2015, 19(6), 6286-” after modification in part. That is, the aforementioned cultured ES cells were individually dispersed using TrypLE Express (Invitrogen), and the individually dispersed human ES cells were suspended in 100 μL of a serum-free medium in a cell non-adhesive 96 well plate (SUMILON spheroid plate, SUMITOMO BAKELITE CO., LTD.) at 9×10^3 cells per well to allow rapid formation of aggregates, after which they were cultured at 37° C., 5% CO2. As the serum-free medium therefor, a serum-free medium obtained by adding 10% KSR, 450 μM 1-monothioglycerol, 1× Chemically defined lipid concentrate, 5 mg/mL BSA, 20 μM Y27632 to a 1:1 mixture of F-12 medium and IMDM medium was used. At 6 days after the start of suspension culture, BMP4 at a final concentration of 1.5 nM was added and suspension culture was continued. A half amount of the culture medium in the well was exchanged with the above-mentioned medium not supplemented with a BMP signal transduction pathway agonist every 3 or 4 days. A cell aggregate containing a retinal tissue at day 18 from the start of suspension culture was cultured in suspension in a serum-free medium (DMEM/F12 medium supplemented with 1% N2 supplement) containing 3 μM CHIR99021 and 5 μM SU5402 for 4 days, namely, up to day 22 from the start of suspension culture. Thereafter, suspension culture of the cell aggregate containing the retinal tissue was continued until it was appropriately used for analysis and the like. As the culture medium during this period, serum-containing media shown in the following to [3] were used and the cell aggregate was cultured under 5% CO2 conditions.
[1] day 22 to day 38 from the start of suspension culture; DMEM/F12 medium supplemented with 10% fetal calf serum, 1% N2 supplement, and 100 μM taurine. day 38 to day 60 from the start of suspension culture; a 1:3 mixed medium of DMEM/F12 medium supplemented with 10% fetal calf serum, 1% N2 supplement, and 100 μM taurine, and Neurobasal medium supplemented with 10% fetal calf serum, 2% B27 supplement, and 100 μM taurine. after day 60 from the start of suspension culture; Neurobasal medium supplemented with 10% fetal calf serum, 2% B27 supplement, and 100 μM taurine.
[1] Control group (FIG. 3a, f, k, p); according to the method described in Example 1, cultured without addition up to day 191 from the start of suspension culture. [2]+BMP group (FIG. 3b, g, 1, q); 0.15 nM BMP4 was added from day 22 to day 100 from the start of suspension culture and cultured up to day 191 from the start of suspension culture. From day 100 to day 191 from the start of suspension culture, cultured in medium described in Example 1. [3]+Cyclopamine-KAAD group (FIG. 3c, h, m, r); 500 nM Cyclopamine-KAAD was added from day 22 to day 100 from the start of suspension culture, and cultured up to day 191 from the start of suspension culture. From day 100 to day 191 from the start of suspension culture, cultured in medium described in Example 1. [4]+LDN193189 group (FIG. 3d, i, n, s); 100 nM LDN193189 was added from day 22 to day 100 from the start of suspension culture, and cultured up to day 191 from the start of suspension culture. From day 100 to day 191 from the start of suspension culture, cultured in medium described in Example 1. [5]+SAG group (FIG. 3e, j, o, t); 100 nM SAG was added from day 22 to day 100 from the start of suspension culture, and cultured up to day 191 from the start of suspension culture. From day 100 to day 191 from the start of suspension culture, cultured in medium described in Example 1. […]

[2] = system: ALDH1A3; test: Immunostaining for ALDH1A3 (ventral marker) of retinal tissue; assay type: cell-based, human; conditions: day 75, 0.15 nM BMP4, 100 nM LDN193189, 100 nM SAG from day 22
Procedure: [1] Control group (FIG. 2a, f, k, p); according to the method described in Example 1, culture was performed up to day 70 or day 75 from the start of suspension culture and without addition. [2]+BMP group (FIG. 2b, g, 1, q); 0.15 nM BMP4 was added from day 22 from the start of suspension culture to completion of suspension culture, and cultured up to day 70 or day 75 from the start of suspension culture. [3]+Cyclopamine-KAAD group (FIG. 2c, h, m, r); 500 nM Cyclopamine-KAAD was added from day 22 from the start of suspension culture to completion of the suspension culture, and cultured up to day 70 or day 75 from the start of suspension culture. [4]+LDN193189 group (FIG. 2d, i, n, s); 100 nM LDN193189 was added from day 22 from the start of suspension culture to completion of the suspension culture, and cultured up to day 70 or day 75 from the start of suspension culture. [5]+SAG group (FIG. 2e, j, o, t); 100 nM SAG was added from day 22 from the start of suspension culture to completion of the suspension culture, and cultured up to day 70 or day 75 from the start of suspension culture.
The retinal tissues produced by the method described in Example 2 were fixed with 4% para-formaldehyde, cryosections were prepared, and immunostaining for GFP (fluorescence of GFP variant incorporated in CRX gene locus can be identified. That is, cells similar to CRX-positive cell can be identified), ALDH1A3, or DAPI staining for staining the nucleus was performed. The retinal tissue used was one on day 75 from the start of suspension culture similar to Example 2. As a result, an ALDH1A3-positive region considered to be a ventral region in the Control (NUC) group was found in the retinal tissue, and in such region, particularly GFP-positive cells, i.e., CRX::Venus-positive cells expressing CRX, were less. In +BMP4 group, overall expression of ALDH1A3 was suppressed as compared to the Control (NUC) group, and CRX::Venus-positive cells increased along therewith.

Compound	proportion of rod photoreceptor precursor (Rod-like; NRL-positive) [1]	proportion of cone photoreceptor precursor (Cone; RXR-γ-positive and NRL-negative) [1]	proportion of NRL-positive rod photoreceptor precursor among photoreceptor precursors versus Control group ([1]; day 191)	CRX::Venus-positive photoreceptor precursor ([1]; day 191, 500 nM Cyclopamine-KAAD day 22 to day 100)	proportion of RXR-γ-positive cone photoreceptor precursor among photoreceptor precursors versus Control group ([1]; day 191)	ALDH1A3 expression / ALDH1A3-positive region versus Control (NUC) group [2]
CC1=C2C[C@H]3[C@@H](CC=C4CC(=O)CC[C@@]43C)[C@@H]2CC[C@]12O[C@@H]1C[C@H](C)CN(CCNC(=O)CCCCCNC(=O)CCc3ccccc3)[C@H]1[C@H]2C [Cyclopamine-KAAD]	about 11.5%	about 30.2%	decreased somewhat	can be increased	can increase	
c1ccc2c(-c3cnn4cc(-c5ccc(N6CCNCC6)cc5)cnc34)ccnc2c1 [LDN193189, 4-[6-(4-piperazin-1-ylphenyl)pyrazolo[1,5-a]pyrimidin-3-yl]quinoline]	about 14.0%	about 20.0%	increased			increased
CNC1CCC(N(Cc2cccc(-c3ccncc3)c2)C(=O)c2sc3ccccc3c2Cl)CC1 (stereo not drawn) [SAG]	about 17.2%	about 12.6%	increased		low	increased
BMP4: BMP protein; BMP signal transduction pathway agonist used as dorsalization signal transmitter	about 6.1%	about 31.3%	reduced			suppressed
